Test results reported in patent US20070154534A1, “Use of secretin in the treatment of schizophrenia” (priority 2003, published 2007).
Marks after values point to notes of the source that are not given here. Values belong to the substance of their own block, whether it stands above or below them. Ends that are not written are not given here.

Experiments:
[1] = clinical units (CU); 0.2 mcg = 1 CU; cited from earlier work
[2] = test system: patients with refractory schizophrenia; conditions: in vivo, iv
Description: Twenty-two subjects were enrolled in the protocol and were randomly assigned to receive one dose of intravenous porcine secretin (SECRETIN-FERRING™, Ferring Laboratories, Inc., Suffern, N.Y., United States of America) or normal saline under double-blind conditions. The protocol allowed for only one infusion of secretin regardless of response. The first seven subjects received either 75 CU of secretin dissolved in 7.5 mL of normal saline (n=4), or saline alone (n=3). The remaining 15 subjects received 150 CU of secretin (n=7) or saline (n=8).

[3] = test system: patients with refractory schizophrenia; assay: Double-blind placebo-controlled pilot study of a single intravenous dose of porcine secretin, rated with PANSS and CGI; format: in vivo, human; conditions: for PANSS negative: baseline 25.5; for PANSS positive: baseline 27; for PANSS general: baseline 48.7; for PANSS total: baseline 101.2
Description: A pilot study of secretin for treatment of refractory schizophrenia was performed. Twenty-two patients were randomized to a single intravenous dose of porcine secretin or placebo. Patients were evaluated with the Positive and Negative Symptom Scale for Schizophrenia (PANSS) and the Clinical Global Impression Scale (CGI) at baseline, two days after secretin infusion and weekly for four weeks. Several patients treated with secretin experienced clinically meaningful, though transient when given a single dose, reductions in symptoms and a greater percentage of patients treated with secretin were rated as improved with the CGI.
All subjects were inpatients at Dorothea Dix Hospital in Raleigh, N.C. United States of America. The protocol was approved by the University of North Carolina at Chapel Hill Committee for the Protection of the Rights of Research Subjects. Subjects or their guardians provided written informed consent. Patients met the following inclusion criteria: (1) age 18-60; (2) DSM-IV diagnosis of schizophrenia or schizoaffective disorder; (3) severe residual symptoms despite at least three adequate trials of anti-psychotic drugs, including at least one atypical drug. Residual symptoms were defined as active delusions, hallucinations, or thought disorder, accompanied by unemployment and lack of significant social relationships outside the family of origin; (4) a baseline PANSS score of at least 70; (5) no changes in psychotropic medications for 4 weeks prior to study entry.
Subjects were assessed at baseline, two days post-infusion, and weekly for four subsequent weeks, with the Clinical Global Impression Scale (CGI) and the Positive and Negative Symptom Scale for Schizophrenia (PANSS). All raters achieved inter-rater reliability of at least 0.90 for the PANSS, and each subject had the same rater for each assessment. Qualitative impressions were also collected from clinical staff during the course of the trial.

[4] = Week 1, single i.v. dose 75 or 150 CU, n=11, mean
[5] = Week 1 after single i.v. dose 75 or 150 CU, n=11, mean
[6] = Week 2, single i.v. dose 75 or 150 CU, n=11, mean
[7] = Week 2 after single i.v. dose 75 or 150 CU, n=11, mean
[8] = Week 3, single i.v. dose 75 or 150 CU, n=11, mean
[9] = Week 3 after single i.v. dose 75 or 150 CU, n=11, mean
[10] = Week 4, single i.v. dose 75 or 150 CU, n=11, mean
[11] = Week 4 after single i.v. dose 75 or 150 CU, n=11, mean
[12] = within the first week after infusion, of 11 secretin-treated patients

Substance: SECREFLO: Secretin commercially available under the trademark SECREFLO from RepliGen Corporation (HSDGTFTSELSRLRDSARLQRLLQGLV-NH2; ends and bridges not checked; UniProt P63298 33-59, looked up)
Potency per milligram of peptide [1]: approximately 5000 CU per milligram

Allergic reactions [2]: no allergic reactions were observed
Substance: Secretin
Premature dropouts or serious adverse events during the trial [2]: no premature dropouts or serious adverse events | Side effects [2]: no side effects noted | Patients with a clinically meaningful response ([3]; 75 CU single i.v. dose): 1 of 4 | Patients with a clinically meaningful response ([3]; 150 CU single i.v. dose): 2 of 7 | CGI-I ([3]; Day 2 after single i.v. dose 75 or 150 CU, n=11, mean (SD)): 3.5 (0.8)* | Group by time interaction for the CGI-Improvement (CGI-I) scale (repeated measures ANOVA, vs placebo) ([3]; F=0.69): no significant group by time interaction | Group by time interaction for PANSS total, positive, negative and general psychopathology scores (repeated measures ANOVA, vs placebo) ([3]; F=1.72, 1.08, 0.6679, 0.41): no significant group by time interactions | PANSS negative [3, 4]: 24.3 | PANSS positive [3, 4]: 25 | PANSS general [3, 4]: 45.8 | CGI-I [3, 5]: 3.4* | PANSS total [3, 5]: 95.1 | PANSS negative [3, 6]: 24.7 | PANSS positive [3, 6]: 26.9 | PANSS general [3, 6]: 49.2 | CGI-I [3, 7]: 3.9 | PANSS total [3, 7]: 100.8 | PANSS negative [3, 8]: 24.9 | PANSS positive [3, 8]: 27 | PANSS general [3, 8]: 48.2 | CGI-I [3, 9]: 3.8* | PANSS total [3, 9]: 100.1 | PANSS negative [3, 10]: 24.5 | PANSS positive [3, 10]: 26.7 | PANSS general [3, 10]: 48.3 | CGI-I [3, 11]: 3.9 | PANSS total [3, 11]: 99.5 | Time until reversion to usual behavior and level of function ([3]; patient of Example 1, 75 CU): four | Time to onset of clinical improvement (more interactive) ([3]; patient of Example 1, person, disorganized schizophrenia, 75 CU): ≤ 24 h | Time until return to baseline mental state ([3]; patient of Example 2, 150 CU): ≤ 12 h | Time to onset of clinical improvement (more alert, coherent speech) ([3]; patient of Example 2, person, disorganized schizophrenia, 150 CU): six | Time after infusion at which improvement was seen (agreed to attend off ward activities) ([3]; patient of Example 3, person, paranoid schizophrenia, 150 CU): 48 h | CGI-I scale vs placebo, post-hoc exploratory Student's t-tests ([3]; two days after infusion (p=0.03), week 1 (p=0.009), week 3 (p=0.002)): significant improvement | Patients rated as minimally improved (qualitative grouping of CGI-I scores) [3, 12]: five | Patients rated as much improved (qualitative grouping of CGI-I scores) [3, 12]: three | Patients rated as unchanged (qualitative grouping of CGI-I scores) [3, 12]: two | Patients rated as worse (qualitative grouping of CGI-I scores) [3, 12]: one

Substance: biologically derived porcine secretin: biologically derived porcine secretin, comparison for SECREFLO potency (HSDGTFTSELSRLRDSARLQRLLQGLV; ends and bridges not checked; UniProt P63298 33-59, looked up)
Potency per milligram of peptide [1]: 3000 CU per milligram
